Assay results: patent US20240148821A1, “PHARMACEUTICAL USE OF CYCLIC PEPTIDE COMPOUND” (CHUGAI SEIYAKU KABUSHIKI KAISHA, priority 2021, published 2024)
Numbered stars: 1 amine (or outer) side, 2 acyl side, 3 side chain; on linkers, the order of the positions; unused ones are H or OH. Bridge positions count the residues as written; N and C are the ends. Square brackets hold non-standard residues; d marks the D form. Peptide text beside a SMILES is read from it. * marks the point of attachment. hPhe(3,5-F2-4-CF3) = N[C@@H](CCc1cc(F)c(C(F)(F)F)c(F)c1)C(=O)O; hPhe(3-Cl-4-CF3) = N[C@@H](CCc1ccc(C(F)(F)F)c(Cl)c1)C(=O)O; hPhe(3-F,4-CF3) = N[C@@H](CCc1ccc(C(F)(F)F)c(F)c1)C(=O)O; NEtPhe(4-CF3) = CCN[C@@H](Cc1ccc(C(F)(F)F)cc1)C(=O)O; NMePhe(4-CF3) = CN[C@@H](Cc1ccc(C(F)(F)F)cc1)C(=O)O; NEtPhe(4-Me) = CCN[C@@H](Cc1ccc(C)cc1)C(=O)O; NMePhe(4-Cl) = CN[C@@H](Cc1ccc(Cl)cc1)C(=O)O; NMedβ3hAla = C[C@H](CC(=O)[*:2])N(C)[*:1]; NMeGly(cPent) = CN[C@H](C(=O)O)C1CCCC1; NMe3Pal = CN[C@@H](Cc1cccnc1)C(=O)O; NMeCha = CN[C@@H](CC1CCCCC1)C(=O)O; NMeGly(cPr) = CN[C@H](C(=O)O)C1CC1; Hyp = O=C(O)[C@@H]1C[C@@H](O)CN1; NMeI = CC[C@H](C)[C@H](NC)C(=O)O; NMeD = CN[C@@H](CC(=O)O)C(=O)O; AllylGly = C=CC[C@H](N)C(=O)O; NMeL = CN[C@@H](CC(C)C)C(=O)O; NMeV = CN[C@H](C(=O)O)C(C)C; d(β3hA) = C[C@@H](N)CC(=O)O; Morpholide = C1CN(*)CCO1; NMeA = CN[C@@H](C)C(=O)O; NMeAib = CNC(C)(C)C(=O)O; Piperidide = C1CCN(*)CC1; Ac5c = NC1(C(=O)O)CCCC1; Aze = O=C(O)[C@@H]1CCN1; Sar = CNCC(=O)O

Columns and labels:
[1] = biological target: protein-protein interaction between Kras and SOS1 (biotin-tagged human Kras loaded with GDP, His-tagged human SOS1) (Homo sapiens (Human), UniProt P01116, G12D); assay: Protein-protein interaction inhibition between Kras and SOS1 (KrasG12D-SOS PPI) using AlphaScreen; assay type: biochemical; settings: AlphaScreen; biotin-tagged human Kras loaded with GDP, His-tagged human SOS1; read-out: KRAS G12D-SOS PPI IC50;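 further: kras produced in E. coli, Ni-coupled donor beads and streptavidin acceptor beads, excitation 680 nm with emission detected at 520–620 nm via singlet oxygen transfer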
[2] = test system: Human pancreatic cancer cell line AsPC-1 (G12D mutation Kras); assay: AsPC-1 cell growth inhibition (AsPC-1 CGI); assay type: cell-based; settings: read-out: AsPC-1 cell growth inhibition, 50% growth inhibitory concentration (IC50 value); 96 hours, CellTiter-Glo, values classified in ranges
Protocol: Test compounds were serially dilated with dimethyl sulfoxide, and 200 nL was then dispensed to a U-bottom 96-well plate using Labcyte Echo. […] The cell suspension was dispensed to a. plate containing a test compound at 100 μL per well and incubated at 37° C. in a 5% carbon dioxide gas incubator. 96 hours later, 80 μL of CellTiter-Glo (Promega) was added to each well and fluorescence was measured.

Row | Compound | IC50 [1] [nM] | IC50 [2] [nM]
1 | CC[C@H](C)[C@@H]1NC(=O)[C@H](CC(C)C)N(C)C(=O)C[C@@H](C)N(C)C(=O)[C@H](C(C)C)NC(=O)C(C)(C)N(C)C(=O)[C@H](CC(C)C)NC(=O)[C@H](CCc2ccc(C(F)(F)F)c(F)c2)NC(=O)CN(C)C(=O)[C@H](CC2CCCCC2)N(C)C(=O)CN(C)C(=O)CN(C)C1=O [Compound 967] (cyclo(I[Sar][Sar][NMeCha][Sar][hPhe(3-F,4-CF3)]L[NMeAib]V[NMedβ3hAla][NMeL])) | 58 | > 500
2 | CC[C@H](C)[C@@H]1NC(=O)[C@H](C)N(C)C(=O)C[C@@H](C)NC(=O)[C@H](C2CCCC2)N(C)C(=O)C2(CCCC2)NC(=O)[C@@H]2CCCN2C(=O)[C@H](CCc2ccc(C(F)(F)F)c(Cl)c2)NC(=O)CN(C)C(=O)[C@H](CC2CCCCC2)N(C)C(=O)[C@@H]2CCN2C(=O)[C@H](C)N(C)C1=O [Compound 1491] (cyclo([Ac5c][NMeGly(cPent)][d(β3hA)][NMeA]I[NMeA][Aze][NMeCha][Sar][hPhe(3-Cl-4-CF3)]P)) | 3.7 | > 500
3 | CCO[C@@H]1C[C@H]2C(=O)NC3(CCCC3)C(=O)N(C)[C@@H](C3CCCC3)C(=O)N(C)[C@H](C)CC(=O)N(C)[C@@H](CC(C)C)C(=O)N[C@@H]([C@@H](C)CC)C(=O)N(C)[C@@H](C)C(=O)N3CC[C@H]3C(=O)N(CC)[C@@H](Cc3ccc(C(F)(F)F)cc3)C(=O)N(C)CC(=O)N[C@@H](CCc3cc(F)c(C(F)(F)F)c(F)c3)C(=O)N2C1 [Compound 466] (cyclo([Ac5c][NMeGly(cPent)][NMedβ3hAla][NMeL]I[NMeA][Aze][NEtPhe(4-CF3)][Sar][hPhe(3,5-F2-4-CF3)][Hyp](Et))) | 3.1 | ≤ 20
4 | CC[C@H](C)[C@@H]1NC(=O)[C@H](C)N(C)C(=O)C[C@@H](C)NC(=O)[C@H](C2CCCC2)N(C)C(=O)C2(CCCC2)NC(=O)[C@@H]2CCCN2C(=O)[C@H](CCc2ccc(C(F)(F)F)c(Cl)c2)NC(=O)CN(C)C(=O)[C@H](Cc2cccnc2)N(C)C(=O)[C@@H]2CCCN2C(=O)CN(C)C1=O [Compound 489] (cyclo([Ac5c][NMeGly(cPent)][d(β3hA)][NMeA]I[Sar]P[NMe3Pal][Sar][hPhe(3-Cl-4-CF3)]P)) | 8.1 | > 500
5 | CC[C@H](C)[C@@H]1NC(=O)[C@H](CC(C)C)N(C)C(=O)C[C@@H](C(=O)N2CCOCC2)N(C)C(=O)[C@H]([C@@H](C)CC)N(C)C(=O)C2(CCCC2)NC(=O)[C@@H]2CCCN2C(=O)[C@H](CCc2ccc(C(F)(F)F)c(Cl)c2)NC(=O)CN(C)C(=O)[C@H](Cc2ccc(C)cc2)N(CC)C(=O)[C@@H]2CCN2C(=O)[C@H](C)N(C)C1=O [Compound 1322] ([NMeL]I[NMeA][Aze][NEtPhe(4-Me)][Sar][hPhe(3-Cl-4-CF3)]P[Ac5c][NMeI][NMeD]-Morpholide; lactam N-11) | 0.82 | ≤ 20
6 | C=CC[C@@H]1NC(=O)[C@H](CC(C)C)N(C)C(=O)C[C@@H](C(=O)N2CCCCC2)N(C)C(=O)[C@H](C(C)C)N(C)C(=O)C2(CCCC2)NC(=O)[C@@H]2CCCN2C(=O)[C@H](CCc2ccc(C(F)(F)F)c(Cl)c2)NC(=O)CN(C)C(=O)[C@H](CC2CCCCC2)N(C)C(=O)[C@@H]2CCN2C(=O)[C@H](C)N(C)C1=O [Compound 745] ([NMeL][AllylGly][NMeA][Aze][NMeCha][Sar][hPhe(3-Cl-4-CF3)]P[Ac5c][NMeV][NMeD]-Piperidide; lactam N-11) | 29 | > 500
7 | CC[C@H](C)[C@@H]1NC(=O)[C@H](CC(C)C)N(C)C(=O)C[C@@H](C(=O)N2CCCCC2)N(C)C(=O)[C@H](C2CCCC2)N(C)C(=O)C2(CCCC2)NC(=O)[C@@H]2CCCN2C(=O)[C@H](CCc2ccc(C(F)(F)F)c(Cl)c2)NC(=O)CN(C)C(=O)[C@H](Cc2ccc(Cl)cc2)N(C)C(=O)[C@@H]2CCN2C(=O)[C@H](C)N(C)C1=O [Compound 120] ([NMeL]I[NMeA][Aze][NMePhe(4-Cl)][Sar][hPhe(3-Cl-4-CF3)]P[Ac5c][NMeGly(cPent)][NMeD]-Piperidide; lactam N-11) | 0.55 | ≤ 20
8 | CC[C@H](C)[C@@H]1NC(=O)[C@H](C)N(C)C(=O)C[C@@H](C)N(C)C(=O)[C@H](CC(C)C)NC(=O)C(C)(C)N(C)C(=O)[C@H](CC(C)C)NC(=O)[C@H](CCc2ccc(C(F)(F)F)c(Cl)c2)NC(=O)CN(C)C(=O)[C@H](Cc2ccc(C(F)(F)F)cc2)N(C)C(=O)CN(C)C(=O)CN(C)C1=O [Compound 1397] (cyclo(I[Sar][Sar][NMePhe(4-CF3)][Sar][hPhe(3-Cl-4-CF3)]L[NMeAib]L[NMedβ3hAla][NMeA])) | 6.4 | > 500
9 | CC[C@H](C)[C@@H]1NC(=O)[C@H](CC(C)C)N(C)C(=O)C[C@@H](C(=O)N2CCCCC2)N(C)C(=O)[C@H](C(C)C)N(C)C(=O)C2(CCCC2)NC(=O)[C@@H]2CCCN2C(=O)[C@H](CCc2ccc(C(F)(F)F)c(Cl)c2)NC(=O)CN(C)C(=O)[C@H](C2CC2)N(C)C(=O)[C@@H]2CCN2C(=O)[C@H](C)N(C)C1=O [Compound 1677] ([NMeL]I[NMeA][Aze][NMeGly(cPr)][Sar][hPhe(3-Cl-4-CF3)]P[Ac5c][NMeV][NMeD]-Piperidide; lactam N-11) | 8.6 | > 500
